Measurements reported in patent US20140094465A1, “Compounds as S-Nitrosoglutathione Reductase Inhibitors” (N30 PHARMACEUTICALS, INC., priority 2011, published 2014).

target: T1, S-nitrosoglutathione reductase (GSNOR) (Homo sapiens, UniProt P11766); experiment: GSNOR assay (inhibition of GSNOR activity, NADH absorbance at 340 nm); format: biochemical; settings: GSNOR inhibitor activity, Tables 1-6; read-out: IC50 range
T1 construct: made in house; host or cells: E. coli
Procedure: Various compounds were tested in vitro for their ability to inhibit GSNOR activity.
GSNOR expression and purification is described in Biochemistry 2000, 39, 10720-10729.
Pre-cultures were grown from stabs of a GSNOR glycerol stock in 2XYT media containing 100 ug/ml ampicillin after an overnight incubation at 37° C. […] GSNOR expression was induced with 0.1% arabinose in an overnight incubation at 20° C.
E. coli cell paste was lysed by nitrogen cavitation and the clarified lysate purified by Ni affinity chromatography on an AKTA FPLC (Amersham Pharmacia). The column was eluted in 20 mM Tris pH 8.0/250 mM NaCl with a 0-500 mM imidazole gradient. Eluted GSNOR fractions containing the Smt-GSNOR fusion were digested overnight with Ulp-1 at 4° C. to remove the affinity tag then re-run on the Ni column under the same conditions. GSNOR was recovered in the flowthrough fraction and for crystallography is further purified by Q-Sepharose and Heparin flowthrough chromatography in 20 mM Tris pH 8.0, 1 mM DTT, 10 uM ZnSO4.
GSNOR assay: GSNO and enzyme/NADH Solutions are made up fresh each day. The solutions are filtered and allowed to warm to room temperature. GSNO solution: 100 mM NaPO4 (pH 7.4), 0.480 mM GSNO. 396 μL of GSNO Solution is added to a cuvette followed by 8 μL of test compound in DMSO (or DMSO only for full reaction control) and mixed with the pipette tip. Compounds to be tested are made up at a stock concentration of 10 mM in 100% DMSO. 2 fold serial dilutions are done in 100% DMSO. 8 μL of each dilution are added to an assay so that the final concentration of DMSO in the assay is 1%. The concentrations of compounds tested range from 100 to 0.003 μM. Enzyme/NADH solution: 100 mM NaPO4 (pH 7.4), 0.600 mM NADH, 1.0 μg/mL GSNO Reductase. 396 μL of the Enzyme/NADH solution is added to the cuvette to start the reaction. The cuvette is placed in the Cary 3E UV/Visible Spectrophotometer and the change in 340 nm absorbance/min at 25° C. is recorded for 3 minutes. The assays are done in triplicate for each compound concentration. IC50's for each compound are calculated using the standard curve analysis in the Enzyme Kinetics Module of SigmaPlot.
Final assay conditions: 100 mM NaPO4, pH 7.4, 0.240 mM GSNO, 0.300 mM NADH, 0.5 μg/mL GSNO Reductase, and 1% DMSO. Final volume: 800 μL/cuvette.

T1 sequence (P11766 whole entry): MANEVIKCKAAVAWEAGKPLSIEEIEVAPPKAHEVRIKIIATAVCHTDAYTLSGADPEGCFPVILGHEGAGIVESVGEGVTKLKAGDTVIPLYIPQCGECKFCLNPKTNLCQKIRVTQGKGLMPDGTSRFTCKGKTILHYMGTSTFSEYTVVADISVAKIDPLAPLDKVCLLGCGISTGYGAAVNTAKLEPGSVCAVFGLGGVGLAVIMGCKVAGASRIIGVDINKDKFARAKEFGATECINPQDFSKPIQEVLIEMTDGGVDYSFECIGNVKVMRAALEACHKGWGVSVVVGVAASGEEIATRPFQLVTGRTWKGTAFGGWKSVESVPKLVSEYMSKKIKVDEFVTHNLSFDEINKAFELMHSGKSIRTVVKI

| SMILES | IC50 [µM] |
| --- | --- |
| O=C(O)C1CCN(c2ccc3cc(O)ccc3n2)CC1 [Compound I-5] | 1 to 10 |
| O=C(O)c1ccc(-c2ccc3cc(O)ccc3n2)cc1Cl [Compound I-9] | 1 to 10 |
| O=C(O)c1ccc(-c2ccc3cc(O)ccc3n2)s1 [Compound I-15] | 1 to 10 |
| O=c1nc(-c2ccc(-c3ccc4cc(O)ccc4n3)cc2)o[nH]1 [Compound I-34] | 0.1 to 1 |
| O=C(O)[C@H]1CC[C@H](c2nc3ccc(O)cc3cc2Cl)CC1 [Compound I-35] | 0.1 to 1 |
| Oc1ccc2nc(-c3ccc(-c4nn[nH]n4)s3)ccc2c1 [Compound I-38] | 0.1 to 1 |
| O=c1nc(-c2ccc(-c3ccc4cc(O)ccc4n3)cc2)s[nH]1 [Compound I-39] | 0.1 to 1 |
| O=C(O)[C@H]1CC[C@@H](c2nc3ccc(O)cc3cc2C(F)(F)F)CC1 [Compound I-44] | 1 to 10 |
| O=C(O)c1ccc(-c2ccc3c(Br)c(O)ccc3n2)cc1 [Compound I-45, 4-(5-bromo-6-hydroxyquinolin-2-yl)benzoic acid] | 0.1 to 1 |
| CN(C)c1cc(-c2ccc(C(=O)O)cc2)nc2ccc(O)cc12 [Compound I-47, 4-(4-(dimethylamino)-6-hydroxyquinolin-2-yl)benzoic acid] | 0.1 to 1 |
| O=C(O)c1ccc(-c2ccc3cc(O)ccc3[n+]2[O-])c(Cl)c1 [Compound I-50, 2-(4-carboxy-2-chlorophenyl)-6-hydroxyquinoline 1-oxide] | 0.1 to 1 |
| Nc1cc(-c2ccc(C(=O)O)cc2)nc2ccc(O)cc12 [Compound I-51, 4-(4-amino-6-hydroxyquinolin-2-yl)benzoic acid] | 1 to 10 |
| COc1cc(-c2ccc3cc(O)ccc3n2)ccc1C(=O)O [Compound I-59, 4-(6-hydroxyquinolin-2-yl)-2-methoxybenzoic acid] | 0.1 to 1 |
| O=[N+]([O-])c1cc(-c2ccc3cc(O)ccc3n2)ccc1O [Compound I-61, 2-(4-hydroxy-3-nitrophenyl)quinolin-6-ol] | 1 to 10 |
| O=C(O)c1ccc(Oc2c(-c3ccccc3)oc3cc(O)ccc3c2=O)cc1 [Compound V-2, 4-((7-hydroxy-4-oxo-2-phenyl-4H-chromen-3-yl)oxy)benzoic acid] | 1 to 10 |
| CC(C)c1oc2cc(O)ccc2c(=O)c1Oc1ccc(C(=O)O)cc1 [Compound V-3, 4-(7-hydroxy-2-isopropyl-4-oxo-4H-chromen-3-yloxy)benzoic acid] | 1 to 10 |
| O=C(O)c1ccc(Oc2c(C(F)(F)F)oc3cc(O)ccc3c2=S)cc1 [Compound V-4, 4-((7-hydroxy-4-thioxo-2-(trifluoromethyl)-4H-chromen-3-yl)oxy)benzoic acid] | 0.1 to 1 |
| COc1cc(Oc2c(C(F)(F)F)oc3cc(O)ccc3c2=O)ccc1C(=O)O [Compound V-5] | 1 to 10 |
| O=c1c(Oc2ccc(-c3nnn[nH]3)cc2)c(C(F)(F)F)oc2cc(O)ccc12 [Compound V-6, 3-(4-(1H-tetrazol-5-yl)phenoxy)-7-hydroxy-2-(trifluoromethyl)-4H-chromen-4-one] | 1 to 10 |
| O=C(O)c1ccc(Oc2c(-c3ccc(Cl)cc3)oc3cc(O)ccc3c2=O)cc1 [Compound V-7, 4-(2-(4-chlorophenyl)-7-hydroxy-4-oxo-4H-chromen-3-yloxy)benzoic acid] | 1 to 10 |
| O=C(O)c1ccc(Oc2c(-c3ccc(F)cc3)oc3cc(O)ccc3c2=O)cc1 [Compound V-8, 4-(2-(4-fluorophenyl)-7-hydroxy-4-oxo-4H-chromen-3-yloxy)benzoic acid] | 1 to 10 |
| COc1ccc(-c2oc3cc(O)ccc3c(=O)c2Oc2ccc(C(=O)O)cc2)cc1 [Compound V-9, 4-(7-hydroxy-2-(4-methoxyphenyl)-4-oxo-4H-chromen-3-yloxy)benzoic acid] | 1 to 10 |
| O=C(O)c1ccc(Oc2c(-c3ccc(O)cc3)oc3cc(O)ccc3c2=O)cc1 [Compound V-10, 4-(7-hydroxy-2-(4-hydroxyphenyl)-4-oxo-4H-chromen-3-yloxy)benzoic acid] | 1 to 10 |
| O=C(O)c1ccc(Sc2c(C(F)(F)F)oc3cc(O)ccc3c2=O)cc1 [Compound V-11, 4-(7-hydroxy-4-oxo-2-(trifluoromethyl)-4H-chromen-3-ylthio)benzoic acid] | 1 to 10 |

The next lines start with the values.

| IC50 [µM] | SMILES |
| --- | --- |
| < 0.1 | Cc1cc2cc(O)ccc2nc1-c1ccc(C(=O)O)cc1 [Compound I-1] |
| < 0.1 | Cc1cc2cc(O)ccc2nc1-c1ccc(-c2nnn[nH]2)cc1 [Compound I-2] |
| 0.1 to 1 | O=C(O)C1CCC(c2ccc3cc(O)ccc3n2)CC1 (centres unmarked) [Compound I-6] |
| < 0.1 | O=C(O)c1ccc(-c2ccc3cc(O)ccc3n2)cc1F [Compound I-10] |
| < 0.1 | Oc1ccc2nc(-c3ccc(-c4nn[nH]n4)cc3)cc(Cl)c2c1 [Compound I-11] |
| < 0.1 | O=c1nc(-c2ccc(-c3ccc4cc(O)ccc4n3)cc2)[nH]o1 [Compound I-12] |
| < 0.1 | COc1cc(C(=O)O)ccc1-c1ccc2cc(O)ccc2n1 [Compound I-14] |
| 0.1 to 1 | O=C(O)C1CC=C(c2ccc3cc(O)ccc3n2)CC1 (centres unmarked) [Compound I-16] |
| < 0.1 | O=c1nc(-c2ccc(-c3ccc4cc(O)ccc4n3)cc2F)[nH]o1 [Compound I-20] |
| < 0.1 | O=c1nc(-c2ccc(-c3ccc4cc(O)ccc4n3)c(F)c2)[nH]o1 [Compound I-21] |
| < 0.1 | Oc1ccc2nc(-c3ccc(-c4nn[nH]n4)cc3Cl)ccc2c1 [Compound I-23] |
| < 0.1 | O=c1[nH]nc(-c2ccc(-c3ccc4cc(O)ccc4n3)cc2)o1 [Compound I-24] |
| < 0.1 | CN(C)c1cc(C(=O)O)ccc1-c1ccc2cc(O)ccc2n1 [Compound I-25] |
| < 0.1 | O=C(O)c1ccc(-c2cc(F)c3cc(O)ccc3n2)cc1 [Compound I-26, 4-(4-fluoro-6-hydroxyquinolin-2-yl)benzoic acid] |
| 0.1 to 1 | O=c1nc(-c2ccc(-c3ccc4cc(O)ccc4n3)cc2)[nH]s1 [Compound I-29] |
| < 0.1 | O=C(O)c1ccc(-c2ccc3cc(O)ccc3n2)c(C(F)(F)F)c1 [Compound I-30] |

| IC50 [µM] | SMILES |
| --- | --- |
| 0.1 to 1 | O=c1[nH]nc(-c2ccc(-c3ccc4cc(O)ccc4n3)cc2)s1 [Compound I-33] |
| < 0.1 | O=C(O)c1ccc(-c2cc(F)c3cc(O)ccc3n2)c(Cl)c1 [Compound I-37, 3-chloro-4-(4-fluoro-6-hydroxyquinolin-2-yl)benzoic acid] |
| < 0.1 | O=C(O)c1ccc(-c2cc(F)c3cc(O)ccc3n2)c(F)c1 [Compound I-40, 3-fluoro-4-(4-fluoro-6-hydroxyquinolin-2-yl)benzoic acid] |
| < 0.1 | O=C(O)C1CCN(c2nc3ccc(O)cc3cc2C(F)(F)F)CC1 [Compound I-41] |
| < 0.1 | O=C(O)[C@H]1CC[C@H](c2nc3ccc(O)cc3cc2C(F)(F)F)CC1 [Compound I-43] |
| < 0.1 | O=C(O)c1ccc(-c2ccc3cc(O)ccc3n2)c(Br)c1 [Compound I-46, 3-bromo-4-(6-hydroxyquinolin-2-yl)benzoic acid] |
| < 0.1 | COc1cc(C(=O)O)ccc1-c1cc(F)c2cc(O)ccc2n1 [Compound I-48, 4-(4-fluoro-6-hydroxyquinolin-2-yl)-3-methoxybenzoic acid] |
| < 0.1 | N#Cc1cc(C(=O)O)ccc1-c1ccc2cc(O)ccc2n1 [Compound I-49, 3-cyano-4-(6-hydroxyquinolin-2-yl)benzoic acid] |
| < 0.1 | N#Cc1cc2cc(O)ccc2nc1-c1ccc(C(=O)O)cc1 [Compound I-52, 4-(3-cyano-6-hydroxyquinolin-2-yl)benzoic acid] |
| < 0.1 | O=C(O)c1ccc(-c2ccc3c(F)c(O)ccc3n2)cc1 [Compound I-53, 4-(5-fluoro-6-hydroxyquinolin-2-yl)benzoic acid] |
| < 0.1 | O=C(O)c1ccc(-c2ccc3cc(O)cc(F)c3n2)cc1 [Compound I-54, 4-(8-fluoro-6-hydroxyquinolin-2-yl)benzoic acid] |
| < 0.1 | O=C(O)c1ccc(-c2ccc3cc(O)ccc3n2)c(O)c1 [Compound I-55, 3-hydroxy-4-(6-hydroxyquinolin-2-yl)benzoic acid] |
| < 0.1 | O=C(O)c1ccc(-c2ccc3c(F)c(O)ccc3n2)c(F)c1 [Compound I-56] |
| < 0.1 | O=C(O)c1ccc(-c2ccc3c(F)c(O)ccc3n2)c(Cl)c1 [Compound I-57] |
| < 0.1 | Cc1cc(C(=O)O)ccc1-c1ccc2c(F)c(O)ccc2n1 [Compound I-58] |
| < 0.1 | O=C(O)c1ccc(-c2ccc3cc(O)ccc3n2)cc1O [Compound I-60, 2-hydroxy-4-(6-hydroxyquinolin-2-yl)benzoic acid] |
